Experimental data from patent US20250353828A1, “SUBSTITUTED BIARYL ENDOCHIN-LIKE QUINOLONES WITH ENHANCED ANTIPARASITIC ACTIVITY” (Oregon Health & Science University, priority 2022, published 2025).
Where two headings read alike, the source gives them in different places.

What was measured:
[1] = test system: P. falciparum D6 strain (drug sensitive); test: In vitro antiplasmodial activity, SYBR Green I assay, D6 strain; type: cell-based, Plasmodium falciparum; conditions: Plasmodium falciparum, read-out: P. falciparum IC50 values, nM D6
Description: (§1) Rationale for Synthesis of a 3-Biaryl Version of ELQ-300. […] All of this information is stored in a database with information relating to chemical structure, physical chemical properties, cross resistance patterns, mammalian cell cytotoxicity, enzyme inhibitor profiles, and synthesis details. […] We employed the SyBr Green assay and the plates were incubated for 72 hours before harvesting^18, 19. […] Stock solutions were freshly prepared in DMSO.
(§2) Plasmodium falciparum Culture. Laboratory strains of P. falciparum were cultured in human erythrocytes by standard methods. The parasites were grown in culture medium with fresh human erythrocytes maintained at 2% hematocrit at 37° C. in low-oxygen conditions (5% O2, 5% CO2, […] balance N2). […] Cultures were maintained at less than 10% parasitemia by transfer of infected cells to fresh erythrocytes and culture medium every 3 or 4 days.
(§3) In vitro drug susceptibility assays. SYBR green I assay. In vitro antiplasmodial activity was assessed using a published SYBR Green I fluorescence-based method. The drugs were added to 96-well plates using 2-fold serial dilutions in complete medium. […] Asynchronous P. falciparum parasites were diluted with uninfected erythrocytes and added to the wells to give a final culture volume of 100 μl at 2% hematocrit and 0.2% parasitemia. […] The parasites were then lysed by adding 100 μl of SYBR green I lysis buffer containing 0.2 μl/ml SYBR green I dye (10,000×) in 20 mM Tris (pH 7.5), 5 mM EDTA, 0.008% (wt/vol) saponin, and 0.08% (vol/vol) Triton X-100. The plates were incubated at room temperature for an hour in the dark. […] If the IC50 value fell outside of the initial tested range then the range was adjusted up or down and the assay was repeated.

[2] = test system: P. falciparum Tm90-C2B (atovaquone-resistant clinical isolate); test: In vitro antiplasmodial activity, SYBR Green I assay, Tm90-C2B; type: cell-based; conditions: Plasmodium falciparum, read-out: P. falciparum IC50 values, nM Tm90-C2B
Description: as §1, §2, §3

[3] = test system: P. falciparum Dd2 strain (multidrug resistant); test: microbe, parasite or virus in culture; type: cell-based, Plasmodium falciparum; conditions: Plasmodium falciparum, DD2, 72 h, read-out: P. falciparum IC50 values, nM Dd2
Description: as §1, §2, §3

[4] = test system: P. falciparum D1 clone (ELQ-300 resistant); test: microbe, parasite or virus in culture; type: cell-based; conditions: Plasmodium falciparum, 72 h, read-out: P. falciparum IC50 values, nM D1
[5] = D6 strain, 72 h incubation, averages of quadruplicate with (95% confidence intervals)
[6] = Tm90-C2B strain, 72 h incubation, averages of quadruplicate with (95% confidence intervals)

`COc1cc2[nH]c(C)c(-c3ccc(-c4ccc(C(F)F)cc4)cc3)c(=O)c2cc1Cl` [ELQ-659, 6-chloro-3-(4′-(difluoromethyl)-[1,1′-biphenyl]-4-yl)-7-methoxy-2-methylquinolin-4(1H)-one] showed an IC50 [1, 5] of 1.8 nM and an IC50 [2, 6] of 0.57 nM.

`COc1ccc2c(=O)c(-c3ccc(-c4cc(C(F)(F)F)cc(C(F)(F)F)c4)cc3)c(C)[nH]c2c1` [ELQ-731, 3-(3′,5′-bis(trifluoromethyl)-[1,1′-biphenyl]-4-yl)-7-methoxy-2-methylquinolin-4(1H)-one] showed an IC50 [1, 5] of 3.93 nM, an IC50 [3] of 4.73 nM and an IC50 [2, 6] of 2.05 nM. It also gave an IC50 [4] of 5.56 nM.

`COc1ccc2c(=O)c(-c3ccc(-c4cccc(OC(F)(F)F)c4)cc3)c(C)[nH]c2c1` [ELQ-732, 7-methoxy-2-methyl-3-(3′-(trifluoromethoxy)-[1,1′-biphenyl]-4-yl)quinolin-4(1H)-one] showed an IC50 [1, 5] of 15.9 nM, an IC50 [3] of 16.3 nM and an IC50 [2, 6] of 14.4 nM. It also gave an IC50 [4] of 10.6 nM.

`Cc1[nH]c2cc(F)cc(F)c2c(=O)c1-c1ccc(-c2ccc(OC(F)(F)F)cc2)cc1` [ELQ-601, 5,7-difluoro-2-methyl-3-(4′-(trifluoromethoxy)-[1,1′-biphenyl]-4-yl)quinolin-4(1H)-one] was tested, and the IC50 [2, 6] was 24.5 nM.

`COc1ccc(-c2ccc(-c3c(C)[nH]c4cc(OC)c(Cl)cc4c3=O)cc2)cc1` [ELQ-645, 6-chloro-7-methoxy-3-(4′-methoxy-[1,1′-biphenyl]-4-yl)-2-methylquinolin-4(1H)-one] showed an IC50 [1, 5] of 5 nM and an IC50 [2, 6] of 6 nM.

Molecule `COc1cc2[nH]c(C)c(-c3ccc(-c4ccc(C(F)(F)F)cc4)cc3)c(=O)c2cc1Cl` [ELQ-647, 6-chloro-7-methoxy-2-methyl-3-(4′-(trifluoromethyl)-[1,1′-biphenyl]-4-yl)quinolin-4(1H)-one] has an IC50 [1, 5] of 3.5 nM and an IC50 [2, 6] of 3.5 nM.

In the case of `COc1cc2[nH]c(C)c(-c3ccc(-c4ccc(OC(F)(F)F)cc4)cc3)c(=O)c2cc1F` [ELQ-650, 6-fluoro-7-methoxy-2-methyl-3-(4′-(trifluoromethoxy)-[1,1′-biphenyl]-4-yl)quinolin-4(1H)-one], the IC50 [1, 5] is reported as 0.8 nM and the IC50 [2, 6] is reported as 0.4 nM.

`COc1cc2[nH]c(C)c(-c3ccc(-c4cccc(C(F)(F)F)c4)cc3)c(=O)c2cc1Cl` [ELQ-646, 6-chloro-7-methoxy-2-methyl-3-(3′-(trifluoromethyl)-[1,1′-biphenyl]-4-yl)quinolin-4(1H)-one] was tested, and the IC50 [1, 5] was 1.1 nM and the IC50 [2, 6] was 1 nM.

With `COc1ccc2c(=O)c(-c3ccc(-c4cc(F)c(OC)c(F)c4)cc3)c(C)[nH]c2c1` [ELQ-734, 3-(3′,5′-difluoro-4′-methoxy-[1,1′-biphenyl]-4-yl)-7-methoxy-2-methylquinolin-4(1H)-one] the IC50 [1, 5] was 10.9 nM, the IC50 [3] was 16.3 nM and the IC50 [2, 6] was 6.4 nM. For the same molecule, the IC50 [4] was 11.6 nM.

`COc1cc2[nH]c(C)c(-c3ccc(-c4ccc(OC(F)F)cc4)cc3)c(=O)c2cc1Cl` [ELQ-600, 6-chloro-3-(4′-(difluoromethoxy)-[1,1′-biphenyl]-4-yl)-7-methoxy-2-methylquinolin-4(1H)-one] showed an IC50 [1, 5] of 3.9 nM and an IC50 [2, 6] of 5.9 nM.

Work on `COc1ccc2c(=O)c(-c3ccc(-c4cc(F)c(OC(F)(F)F)c(F)c4)cc3)c(C)[nH]c2c1` [ELQ-733, 3-(3′,5′-difluoro-4′-(trifluoromethoxy)-[1,1′-biphenyl]-4-yl)-7-methoxy-2-methylquinolin-4(1H)-one] yielded an IC50 [1, 5] of 7.45 nM, an IC50 [3] of 7.9 nM and an IC50 [2, 6] of 2.94 nM. It also gave an IC50 [4] of 6.18 nM.

For `COc1cc2[nH]c(C)c(-c3ccc(-c4cccc(OC(F)(F)F)c4)cc3)c(=O)c2cc1Cl` [ELQ-604, 6-chloro-7-methoxy-2-methyl-3-(3′-(trifluoromethoxy)-[1,1′-biphenyl]-4-yl)quinolin-4(1H)-one], the IC50 [1, 5] was 0.6 nM and the IC50 [2, 6] was 0.5 nM.

`Cc1[nH]c2c(c(=O)c1-c1ccc(-c3ccc(OC(F)(F)F)cc3)cc1)CCCC2` [ELQ-660] gave an IC50 [1, 5] of 15.6 nM and an IC50 [2, 6] of 7.9 nM.

`COc1ccc2c(=O)c(-c3ccc(-c4cccc(C(F)(F)F)c4)cc3)c(C)[nH]c2c1` [ELQ-730, 7-Methoxy-2-methyl-3-(3′-(trifluoromethyl)-[1,1′-biphenyl]-4-yl)quinolin-4(1H)-one] showed an IC50 [1, 5] of 5.02 nM, an IC50 [3] of 5.33 nM and an IC50 [2, 6] of 4.05 nM. It also gave an IC50 [4] of 3.82 nM.

With `COc1cc2[nH]c(C)c(-c3ccc(-c4ccc(C)cc4)cc3)c(=O)c2cc1Cl` [ELQ-603, 6-chloro-7-methoxy-2-methyl-3-(4′-methyl-[1,1′-biphenyl]-4-yl)quinolin-4(1H)-one] the IC50 [1, 5] was 1 nM and the IC50 [2, 6] was 1.5 nM.

`COc1ccc2c(=O)c(-c3ccc(-c4ccc(C(F)(F)F)cc4OC)cc3)c(C)[nH]c2c1` [ELQ-757] showed an IC50 ([1]; D6, 72 h) of 3.08 nM, an IC50 [3] of 4.85 nM and an IC50 ([2]; TM90, 72 h) of 3 nM. It also gave an IC50 [4] of 1.91 nM.

In the case of `COc1cc2[nH]c(C)c(-c3ccc(-c4ccc(C(C)(C)C)cc4)cc3)c(=O)c2cc1Cl` [ELQ-651, 3-(4′-(tert-butyl)-[1,1′-biphenyl]-4-yl)-6-chloro-7-methoxy-2-methylquinolin-4(1H)-one], the IC50 [1, 5] is reported as 1.1 nM and the IC50 [2, 6] is reported as 0.49 nM.

`COc1cc2[nH]c(C)c(-c3ccc(-c4ccc(C#N)cc4)cc3)c(=O)c2cc1Cl` [ELQ-602, 4′-(6-chloro-7-methoxy-2-methyl-4-oxo-1,4-dihydroquinolin-3-yl)-[1,1′-biphenyl]-4-carbonitrile] was tested, and the IC50 [1, 5] was 4.8 nM and the IC50 [2, 6] was 10.9 nM.

Molecule `COc1ccc2c(=O)c(-c3ccc(-c4ccc(F)cc4OC)cc3)c(C)[nH]c2c1` [ELQ-756, 3-(4′-Fluoro-2′-methoxy-[1,1′-biphenyl]-4-yl)-7-methoxy-2-methylquinolin-4(1H)-one] has an IC50 [1, 5] of 3.27 nM, an IC50 [3] of 4.46 nM and an IC50 [2, 6] of 3.22 nM. The IC50 [4] was 2.06 nM.

Work on `COc1cc2[nH]c(C)c(-c3ccc(-c4ccc(Oc5ccc(OC(F)(F)F)cc5)cc4)cc3)c(=O)c2cc1Cl` [ELQ-653] yielded an IC50 [1, 5] of 1.5 nM and an IC50 [2, 6] of 0.88 nM.

Work on `Cc1[nH]c2ccccc2c(=O)c1-c1ccc(-c2ccc(OC(F)(F)F)cc2)cc1` [ELQ-649, 2-methyl-3-(4′-(trifluoromethoxy)-[1,1′-biphenyl]-4-yl)quinolin-4(1H)-one] yielded an IC50 [1, 5] of 7.9 nM and an IC50 [2, 6] of 6 nM.

`COc1cc2[nH]c(C)c(-c3ccc(-c4ccc(Cl)cc4)cc3)c(=O)c2cc1Cl` [ELQ-637, 6-chloro-3-(4′-chloro-[1,1′-biphenyl]-4-yl)-7-methoxy-2-methylquinolin-4(1H)-one] showed an IC50 [1, 5] of 3.4 nM and an IC50 [2, 6] of 3 nM.
